# Measurements taken from PMC10568461, “A pilot study of cerebral metabolism and serotonin 5-HT2A receptor occupancy in rats treated with the psychedelic tryptamine DMT in conjunction with the MAO inhibitor harmine” (Frontiers in Pharmacology, 2023).
# Experiments:
# serotonin 5-HT1A = tested on: serotonin 5-HT1A; set-up: method as in ref Lyon et al., 1988; Pierce and Peroutka, 1989; McKenna et al., 1990; Keiser et al., 2009; Ray, 2010; settings: ref Lyon et al., 1988; Pierce and Peroutka, 1989; McKenna et al., 1990; Keiser et al., 2009; Ray, 2010; cited from earlier work
# [1] = biological target: T1, serotonin 5-HT2A receptors (Rattus norvegicus, UniProt P14842); assay: Ex vivo occupancy at frontal cortex 5-HT2A receptors with [^3H]ketanserin (experiment 1); type: in vivo
# T1 construct: from tissue; host or cells: rat frontal cortex (living rat brain, measured ex vivo after in vivo radioligand injection)
# Experimental: Groups of (n = 6) rats received either saline, harmine (1 mg/kg), DMT (1 mg/kg), or harmine + DMT (1 mg/kg each) as subcutaneous injections, as indicated in Figure 1. Approximately 5 minutes later, the animals were lightly anesthetized using (2% isoflurane in pure oxygen) and received [^3H]ketanserin (300 kBq; 740 MBq/µmol) as a bolus injection in 0.2 mL saline via a tail vein. […] At the conclusion of the PET recording, rats were sacrificed while still anesthetized, thus 95 min after drug administration. Terminal samples of cerebellum (non-binding reference tissue) and frontal cortex were transferred to preweighed 7 mL liquid scintillation vials, reweighed, and added with 0.9 mL of aqueous based solubilizer (Solvable, Perkin Elmer) for dissolution during 48 h at room temperature. Next, 7 mL of liquid scintillation counting cocktail (Ultima Gold™ XR, Perkin Elmer) was added to each sample, and the content of tritium (i.e., [^3H]ketanserin, cpm/mg) was measured by liquid scintillation counting (TRI-CARB, Perkin Elmer). We calculated the occupancy by DMT at frontal cortex 5-HT2A receptors for the three treatment groups relative to the specific binding ratio ([cortex-cerebellum]/cerebellum) for the control group.
# rats = assay: Behavioural observations in treated rats; type: in vivo, rat; settings: in some DMT- (and harmine-) treated rats; not systematically assessed
# brain glucose metabolism = assay: [^18F]FDG-PET of cerebral glucose metabolism (experiment 1); type: in vivo, rat; settings: for [^18F]FDG-PET SUV normalized to whole-brain uptake (SUVglob): 1 mg/kg s.c.; for [^18F]FDG-PET SUV normalized to whole-brain uptake (SUVglob) / [^18F]FDG-PET glucose normalized SUV (SUVgluc): mean (SD)
# Experimental: The dynamic PET recordings were histogrammed into six frames of 5 minutes each, and reconstructed with attenuation, decay, and scatter correction using the OSEM3D/SP-MAP algorithm (2 x OSEM iterations and 18 x MAP iterations) with a matrix size of 128 × 128 pixels, resulting in a final target resolution of 0.8 mm/pixel. Pre-processing of PET scans was performed using PMOD v4.2 (PMOD Technologies LLC, Zurich, Switzerland). The [^18F]FDG images were averaged across the six frames and then converted into standardized uptake values (SUV), whereupon the image was cropped to the head of the animal and automatically co-registered to a standard [^18F]FDG-PET template. We used Schiffer’s atlas ([Schiffer et al., 2006]) for parcellation of bilateral brain regions within the cortico-striato-thalamo-cortical (CSTC) circuit, i.e. bilateral nucleus accumbens (NAc), medial prefrontal cortex (mPFC), orbitofrontal cortex (OFC), hippocampus, striatum, thalamus, visual cortex, cerebellum as a comparator region, and whole brain. We selected these regions from the CSTC circuit based on a conceptual model holding that the thalamus acts as a filter/gatekeeper of sensory information, broadcasting to cortical regions that subserve conscious experience ([Wang et al., 2006]; [McAlonan et al., 2008]). Perturbation of this CSTC circuit is implicated in the action of psychedelic compounds ([Geyer and Vollenweider, 2008]; [Preller et al., 2019]). We scaled individual regional SUV results to the mean blood glucose levels measured during the recording session (SUVgluc) and to the global [^18F]FDG uptake (SUVglob).
# [2] = Brain concentrations of harmine, DMT and metabolites by UHPLC-MS after s.c. harmine and/or DMT; settings: for concentration at 95 min / concentration at 65 min: rat, subcutaneous
# Experimental: Groups of (n = 6) rats received either saline, harmine (1 mg/kg), DMT (1 mg/kg), or harmine + DMT (1 mg/kg each) as subcutaneous injections, as indicated in Figure 1.
# After 45 min, rats were sacrificed by decapitation, and the brains dissected into cerebellum and frontal cortex samples for radioactivity measurement and chemical analysis, thus 65 min after harmine + DMT.
# brain 5-HT2A receptors = settings: calculated; humans, oral DMT and harmine; ref Koeck, 2015; cited from earlier work
# [3] = biological target: serotonin 5-HT2A receptors; set-up: method as in ref Lyon et al., 1988; Pierce and Peroutka, 1989; McKenna et al., 1990; Keiser et al., 2009; Ray, 2010; settings: ref Lyon et al., 1988, Pierce and Peroutka, 1989, McKenna et al., 1990, Keiser et al., 2009, Ray, 2010, cited from earlier work
# 5-HT2C receptors = biological target: 5-HT2C receptors; set-up: method as in ref Lyon et al., 1988; Pierce and Peroutka, 1989; McKenna et al., 1990; Keiser et al., 2009; Ray, 2010; settings: ref Lyon et al., 1988; Pierce and Peroutka, 1989; McKenna et al., 1990; Keiser et al., 2009; Ray, 2010; cited from earlier work
# [4] = biological target: T1, serotonin 5-HT2A receptors; assay: Ex vivo occupancy at frontal cortex 5-HT2A receptors with [^18F]MH.MZ (experiment 2); type: in vivo; settings: Experiment 2, [^18F]MH.MZ
# Experimental: Animals were lightly sedated using 2% isoflurane in pure oxygen at 20 min post DMT injection, whereupon they received a 0.2 mL intravenous injection of [^18F]MH.MZ diluted in saline to a radiochemical concentration of approximately 20 MBq/mL. Rats then returned to their home cage with withdrawal of anesthesia. After 45 min, rats were sacrificed by decapitation, and the brains dissected into cerebellum and frontal cortex samples for radioactivity measurement and chemical analysis, thus 65 min after harmine + DMT. The gamma-activity in weighed samples of cerebellum and frontal cortex regions was counted with a Packard Cobra gamma counter (GMI, Ramsey, Minnesota, US), as previously reported ([Bærentzen et al., 2019]). As with [^3H]ketanserin, the occupancy at [^18F]MH.MZ binding sites in frontal cortex was calculated from the specific binding ratio (cortex-cerebellum)/cerebellum) measured in the saline control and treatment groups.
# T1 sequence (P14842 whole entry): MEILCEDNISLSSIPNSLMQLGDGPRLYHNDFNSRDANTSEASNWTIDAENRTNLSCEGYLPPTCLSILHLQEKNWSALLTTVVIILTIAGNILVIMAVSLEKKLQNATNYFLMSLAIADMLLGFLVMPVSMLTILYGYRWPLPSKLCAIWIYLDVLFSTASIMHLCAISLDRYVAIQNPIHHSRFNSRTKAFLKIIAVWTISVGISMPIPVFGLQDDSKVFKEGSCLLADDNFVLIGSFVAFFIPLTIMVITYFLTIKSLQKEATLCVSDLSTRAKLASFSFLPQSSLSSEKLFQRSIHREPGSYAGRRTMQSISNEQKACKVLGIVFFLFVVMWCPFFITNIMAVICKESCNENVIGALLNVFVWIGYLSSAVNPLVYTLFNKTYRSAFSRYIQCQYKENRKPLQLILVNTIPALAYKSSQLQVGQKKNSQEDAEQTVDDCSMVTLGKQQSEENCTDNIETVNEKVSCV
compound,measurement,setting,value
"CN(C)CCc1c[nH]c2ccccc12 [DMT, N,N-dimethyltryptamine]",IC50,serotonin 5-HT1A,170 nM
same,Ki,serotonin 5-HT1A,183 nM
same,[^3H]ketanserin specific binding ratio in frontal cortex,"[1]; Experiment 1, 1 mg/kg each s.c., 95 min after administration, (cortex-cerebellum)/cerebellum",2.15 ± 0.39
same,Occupancy at 5-HT2A sites ex vivo,"[1]; Experiment 1, [^3H]ketanserin",unable to detect any such occupancy
same,Head twitch response,rats,observed the characteristic dose-dependent head twitch response
same,Qualitative effect on brain [^18F]FDG uptake (SUVglob maps),"brain glucose metabolism; 1 mg/kg, separately or in combination",no conspicuous effects
same,Trend towards relative increase in SUVglob in hippocampus and thalamus,"brain glucose metabolism; Experiment 1, 1 mg/kg",~5%
same,[^18F]FDG-PET SUV normalized to whole-brain uptake (SUVglob),brain glucose metabolism; NAc,6.2 (0.36) SUV
same,[^18F]FDG-PET glucose normalized SUV (SUVgluc),"brain glucose metabolism; NAc, 1 mg/kg",6.48 (0.93) SUV
same,[^18F]FDG-PET SUV normalized to whole-brain uptake (SUVglob),brain glucose metabolism; OFC,6.52 (0.15) SUV
same,[^18F]FDG-PET glucose normalized SUV (SUVgluc),"brain glucose metabolism; OFC, 1 mg/kg",6.82 (0.84) SUV
same,[^18F]FDG-PET SUV normalized to whole-brain uptake (SUVglob),brain glucose metabolism; cerebellum,4.56 (0.23) SUV
same,[^18F]FDG-PET glucose normalized SUV (SUVgluc),"brain glucose metabolism; cerebellum, 1 mg/kg",4.76 (0.64) SUV
same,[^18F]FDG-PET SUV normalized to whole-brain uptake (SUVglob),brain glucose metabolism; hippocampus,4.95 (0.21) SUV
same,[^18F]FDG-PET glucose normalized SUV (SUVgluc),"brain glucose metabolism; hippocampus, 1 mg/kg",5.2 (0.85) SUV
same,[^18F]FDG-PET SUV normalized to whole-brain uptake (SUVglob),brain glucose metabolism; mPFC,6.95 (0.34) SUV
same,[^18F]FDG-PET glucose normalized SUV (SUVgluc),"brain glucose metabolism; mPFC, 1 mg/kg",7.3 (1.24) SUV
same,[^18F]FDG-PET SUV normalized to whole-brain uptake (SUVglob),brain glucose metabolism; striatum,6.91 (0.24) SUV
same,[^18F]FDG-PET glucose normalized SUV (SUVgluc),"brain glucose metabolism; striatum, 1 mg/kg",7.24 (1.07) SUV
same,[^18F]FDG-PET SUV normalized to whole-brain uptake (SUVglob),brain glucose metabolism; thalamus,6.33 (0.1) SUV
same,[^18F]FDG-PET glucose normalized SUV (SUVgluc),"brain glucose metabolism; thalamus, 1 mg/kg",6.62 (0.86) SUV
same,[^18F]FDG-PET SUV normalized to whole-brain uptake (SUVglob),brain glucose metabolism; visual cortex,6.27 (0.13) SUV
same,[^18F]FDG-PET glucose normalized SUV (SUVgluc),"brain glucose metabolism; visual cortex, 1 mg/kg",6.57 (0.99) SUV
same,[^18F]FDG-PET glucose normalized SUV (SUVgluc),"brain glucose metabolism; whole brain, 1 mg/kg",5.8 (0.81) SUV
same,Percentage of total molar concentration of DMT and metabolites,"[2]; Exp 1, group DMT, average of regions",2.3%
same,Percentage of total molar concentration of DMT and metabolites,"[2]; Exp 1, group DMT, cerebellum",2.0%
same,Percentage of total molar concentration of DMT and metabolites,"[2]; Exp 1, group DMT, front cort",2.6%
same,Percentage of total molar concentration of DMT and metabolites,"[2]; Exp 1, group Har + DMT, average of regions",33.9%
same,Percentage of total molar concentration of DMT and metabolites,"[2]; Exp 1, group Har + DMT, cerebellum",32.9%
same,Percentage of total molar concentration of DMT and metabolites,"[2]; Exp 1, group Har + DMT, front cort",34.7%
same,Percentage of total molar concentration of DMT and metabolites,"[2]; Exp 2, group Har + DMT, average of regions",73.3%
same,Percentage of total molar concentration of DMT and metabolites,"[2]; Exp 2, group Har + DMT, cerebellum",71.1%
same,Percentage of total molar concentration of DMT and metabolites,"[2]; Exp 2, group Har + DMT, front cort",74.9%
same,DMT detectable in brain,"[2]; Experiment 1, after DMT alone (1 mg/kg)",Only traces
same,Brain concentration,"[2]; Experiment 1, cerebellum, group Har + DMT (1 mg/kg each s.c.), 95 min, mean (SD)",105.1 (89.2) ng/g
same,Brain concentration,"[2]; Experiment 1, frontal cortex, group Har + DMT (1 mg/kg each s.c.), 95 min, mean (SD)",149.5 (123.2) ng/g
same,DMT/3-IAA ratio in brain,"[2]; Experiment 1, harmine + DMT 1 mg/kg each",approximately 0.53
same,Brain concentration,"[2]; Experiment 2, cerebellum, group Har + DMT (3 mg/kg each s.c.), 65 min, mean (SD)",1472.7 (369.2) ng/g
same,Brain concentration,"[2]; Experiment 2, frontal cortex, group Har + DMT (3 mg/kg each s.c.), 65 min, mean (SD)",2122.7 (434.2) ng/g
same,DMT/3-IAA ratio in brain,"[2]; Experiment 2, harmine + DMT 3 mg/kg each",~2.83
same,Brain concentration after 3 mg/kg harmine + DMT relative to the lower harmine + DMT dose,[2]; Experiment 2 versus experiment 1,14 fold
same,Higher DMT concentration in frontal cortex compared to cerebellum,"[2]; Experiments 1 and 2, harmine + DMT",50%
same,concentration at 95 min,"[2]; brain (average of frontal cortex and cerebellum), 1 mg/kg, Molar concentration, Exp 1, group DMT, average of regions",61.5 nM
same,concentration at 95 min,"[2]; brain (average of frontal cortex and cerebellum), Molar concentration, Exp 1, group Har + DMT, average of regions",676 nM
same,concentration at 65 min,"[2]; brain (average of frontal cortex and cerebellum), Molar concentration, Exp 2, group Har + DMT, average of regions",9.55 µM
same,concentration at 95 min,"[2]; cerebellum, 1 mg/kg, Brain concentration, Experiment 1, cerebellum, group DMT (1 mg/kg s.c.), 95 min, mean (SD)",8.7 ng/g
same,concentration at 95 min,"[2]; cerebellum, 1 mg/kg, Molar concentration, Exp 1, group DMT, cerebellum",46 nM
same,concentration at 95 min,"[2]; cerebellum, Brain concentration, Experiment 1, cerebellum, after harmine + DMT (1 mg/kg each)",600 nM
same,concentration at 95 min,"[2]; cerebellum, Brain concentration, Experiment 1, cerebellum, group Har (harmine 1 mg/kg s.c.), 95 min after drug, mean (SD)",4.1 ng/g
same,concentration at 95 min,"[2]; cerebellum, Brain concentration, Experiment 1, cerebellum, group Har + DMT (1 mg/kg each s.c.), 95 min, mean (SD)",105 ng/g
same,concentration at 65 min,"[2]; cerebellum, Brain concentration, Experiment 2, cerebellum, after harmine + DMT (3 mg/kg each)",7.8 µM
same,concentration at 65 min,"[2]; cerebellum, Brain concentration, Experiment 2, cerebellum, group Har + DMT (3 mg/kg each s.c.), 65 min, mean (SD)",1470 ng/g
same,concentration at 95 min,"[2]; cerebellum, Molar concentration, Exp 1, group Har + DMT, cerebellum",558 nM
same,concentration at 65 min,"[2]; cerebellum, Molar concentration, Exp 2, group Har + DMT, cerebellum",7.82 µM
same,concentration at 95 min,"[2]; frontal cortex, 1 mg/kg, Brain concentration, Experiment 1, frontal cortex, group DMT (1 mg/kg s.c.), 95 min, mean (SD)",14.5 ng/g
same,concentration at 95 min,"[2]; frontal cortex, 1 mg/kg, Molar concentration, Exp 1, group DMT, front cort",77.1 nM
same,concentration at 95 min,"[2]; frontal cortex, Brain concentration, Experiment 1, frontal cortex, after harmine + DMT (1 mg/kg each), 95 min",800 nM
same,concentration at 95 min,"[2]; frontal cortex, Brain concentration, Experiment 1, frontal cortex, group Har (harmine 1 mg/kg s.c.), 95 min, mean (SD)",4.8 ng/g
same,concentration at 95 min,"[2]; frontal cortex, Brain concentration, Experiment 1, frontal cortex, group Har + DMT (1 mg/kg each s.c.), 95 min, mean (SD)",150 ng/g
same,concentration at 65 min,"[2]; frontal cortex, Brain concentration, Experiment 2, frontal cortex, after harmine + DMT (3 mg/kg each), 65 min",≤ 11.3 µM
same,concentration at 65 min,"[2]; frontal cortex, Brain concentration, Experiment 2, frontal cortex, group Har + DMT (3 mg/kg each s.c.), 65 min, mean (SD)",2120 ng/g
same,concentration at 95 min,"[2]; frontal cortex, Molar concentration, Exp 1, group Har + DMT, front cort",794 nM
same,concentration at 65 min,"[2]; frontal cortex, Molar concentration, Exp 2, group Har + DMT, front cort",11.3 µM
same,Time of peak DMT occupancy post-administration,brain 5-HT2A receptors,0.5 to 1.5 h
same,IC50,[3]; read-out: IC50 at 5-HT2A receptors in vitro,75 to 360 nM
same,Ki,[3]; read-out: Ki at 5-HT2A receptors in vitro,127 to 1200 nM
same,IC50,5-HT2C receptors,360 nM
same,Ki,5-HT2C receptors,360 to 2630 nM
same,Occupancy at 5-HT2A sites ex vivo,[4],unable to detect any such occupancy
